Measured values reported in patent US12252524B2, “GIP/GLP1 co-agonist compounds” (Eli Lilly and Company, priority 2018, dated 2025).
Numbered stars: 1 amine (or outer) side, 2 acyl side, 3 side chain; on linkers, the order of the positions; unused ones are H or OH. Square brackets hold non-standard residues; d marks the D form. Side chains are listed from the residue outwards. Peptide text beside a SMILES is read from it. * marks the point of attachment. C20 diacid = O=C(O)CCCCCCCCCCCCCCCCCCC(=O)*; γGlu = O=C(O)[C@H](CCC(=O)[*:2])N[*:1]; AEEA = NCCOCCOCC(=O)O; Aib = CC(C)(N)C(=O)O

Tests used:
[1] = target: human GLP-1 receptor (GLP-1R) (Homo sapiens, UniProt P43220); assay: cAMP pharmacological functional assay in presence of casein, hGLP-1R; format: cell-based; settings: HEK293 cells expressing hGLP-1R, 0.1% Casein, geometric mean; read-out: hGLP1R cAMP Rel EC50 nM (SEM, n)
human Gcg receptor = target: T1, human Gcg receptor (Homo sapiens, UniProt P47871); assay: [125I]-Glucagon binding (SPA), human Gcg receptor; settings: read-out: hGLcgR Ki, nM (SEM, n)
T1 construct: expressed in transfected cells; crude membranes
Procedure, shortened: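 Cell pellets were lysed in hypotonic Tris buffer, pH 7.5, homogenized, and spun at low then high speed to give crude membranes. Ki was derived from the fitted IC50.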

human GIP receptor = target: T2, human GIP receptor (Homo sapiens, UniProt P48546); assay: [125I]-GIP binding (SPA), human GIP receptor; settings: read-out: hGIPR Ki, nM (SEM, n)
T2 construct: expressed in transfected cells; crude membranes
T2 sequence (P48546 22-466): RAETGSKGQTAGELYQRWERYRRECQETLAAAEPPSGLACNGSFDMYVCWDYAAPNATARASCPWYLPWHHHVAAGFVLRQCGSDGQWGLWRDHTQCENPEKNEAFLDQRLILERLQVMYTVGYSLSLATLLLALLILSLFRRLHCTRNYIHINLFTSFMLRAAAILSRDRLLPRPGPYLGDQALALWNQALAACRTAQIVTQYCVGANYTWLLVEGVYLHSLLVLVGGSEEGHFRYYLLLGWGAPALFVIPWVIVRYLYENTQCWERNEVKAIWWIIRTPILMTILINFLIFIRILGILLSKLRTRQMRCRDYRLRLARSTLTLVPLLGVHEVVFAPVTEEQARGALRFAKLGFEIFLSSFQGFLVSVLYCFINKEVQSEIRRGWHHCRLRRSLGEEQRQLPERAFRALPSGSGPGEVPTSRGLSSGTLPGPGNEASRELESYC

[2] = target: T3, gastric inhibitory peptide receptor (GIPR) (Homo sapiens, UniProt P48546); assay: cAMP pharmacological functional assay in presence of casein, hGIPR; format: cell-based; settings: HEK293 cells expressing hGIPR, 0.1% Casein, geometric mean; read-out: hGIPR cAMP Rel EC50 nM (SEM, n)
T3 sequence (P48546 22-466): T2 sequence (P48546 22-466)

human GLP-1R = human GLP-1R (Homo sapiens, UniProt P43220); assay: [125I]-GLP-1 binding (SPA), human GLP-1 receptor; parameters: expressed in transfected cells; crude membranes; settings: read-out: hGLP1R Ki, (nM) (SEM, n)
Procedure, shortened: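 Membranes: hypotonic lysis (50 mM Tris HCl, pH 7.5, protease inhibitors), Potter-Elvehjem homogenization, high-speed pellet (35000×g 1 h or 25000×g 30 min, 4° C.). Buffer: 25 mM HEPES pH 7.4, 2.5 mM CaCl2, 1 mM MgCl2. Four-parameter IC50 fit; Ki as geometric mean ± SEM.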

Chain of human GLP-1 receptor (GLP-1R) (P43220 24-463): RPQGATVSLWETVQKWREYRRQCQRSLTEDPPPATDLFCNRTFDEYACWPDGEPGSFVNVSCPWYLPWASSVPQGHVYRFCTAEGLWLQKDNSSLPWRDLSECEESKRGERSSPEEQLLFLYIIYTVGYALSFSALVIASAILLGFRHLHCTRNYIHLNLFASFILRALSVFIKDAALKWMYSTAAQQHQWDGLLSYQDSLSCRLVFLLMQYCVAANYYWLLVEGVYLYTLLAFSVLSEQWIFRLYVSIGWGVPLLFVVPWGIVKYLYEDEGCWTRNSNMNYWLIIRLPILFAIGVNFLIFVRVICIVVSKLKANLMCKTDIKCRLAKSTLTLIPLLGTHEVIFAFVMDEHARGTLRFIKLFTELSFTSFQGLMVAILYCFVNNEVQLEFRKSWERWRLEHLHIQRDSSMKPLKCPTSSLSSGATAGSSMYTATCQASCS
Chain of human GLP-1R (P43220 24-463): as above
T1 sequence (P47871 26-477): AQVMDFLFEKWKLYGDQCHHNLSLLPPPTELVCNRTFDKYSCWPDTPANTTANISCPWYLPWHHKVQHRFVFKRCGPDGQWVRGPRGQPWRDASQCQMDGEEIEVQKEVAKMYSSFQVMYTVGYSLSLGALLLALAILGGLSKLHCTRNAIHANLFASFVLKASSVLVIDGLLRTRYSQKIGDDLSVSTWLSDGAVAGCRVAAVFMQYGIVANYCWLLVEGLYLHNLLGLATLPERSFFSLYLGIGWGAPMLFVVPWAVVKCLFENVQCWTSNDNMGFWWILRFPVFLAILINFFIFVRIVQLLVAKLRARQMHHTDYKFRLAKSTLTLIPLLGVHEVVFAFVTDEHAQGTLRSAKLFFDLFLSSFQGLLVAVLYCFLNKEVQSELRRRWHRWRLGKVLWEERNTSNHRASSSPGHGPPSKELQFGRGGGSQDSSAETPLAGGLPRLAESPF

For `CC[C@H](C)[C@H](NC(=O)[C@H](CCCCN)NC(=O)[C@H](CC(=O)O)NC(=O)[C@H](CC(C)C)NC(=O)[C@H](CC(C)C)NC(=O)[C@@H](NC(=O)[C@H](CO)NC(=O)[C@H](Cc1ccc(O)cc1)NC(=O)[C@H](CC(=O)O)NC(=O)[C@H](CO)NC(=O)[C@@H](NC(=O)[C@H](Cc1ccccc1)NC(=O)[C@@H](NC(=O)CNC(=O)[C@H](CCC(=O)O)NC(=O)C(C)(C)NC(=O)[C@@H](N)Cc1ccc(O)cc1)[C@@H](C)O)[C@@H](C)O)[C@@H](C)CC)C(=O)N[C@@H](C)C(=O)N[C@@H](CCC(N)=O)C(=O)NC(C)(C)C(=O)N[C@@H](C)C(=O)N[C@@H](Cc1ccccc1)C(=O)N[C@H](C(=O)N[C@@H](CCC(=O)O)C(=O)N[C@@H](Cc1ccc(O)cc1)C(=O)N[C@@H](CC(C)C)C(=O)N[C@H](C(=O)N[C@@H](CCC(=O)O)C(=O)NCC(=O)NCC(=O)N1CCC[C@H]1C(=O)N[C@@H](CO)C(=O)N[C@@H](CO)C(=O)NCC(=O)N[C@@H](C)C(=O)N[C@@H](CCCCNC(=O)COCCOCCNC(=O)COCCOCCNC(=O)CC[C@H](NC(=O)CCCCCCCCCCCCCCCCCCC(=O)O)C(=O)O)C(=O)N1CCC[C@H]1C(=O)N1CCC[C@H]1C(=O)N[C@@H](CO)C(N)=O)[C@@H](C)CC)[C@@H](C)CC` [Example 45] (H-Y[Aib]EGTFTSDYSILLDKIAQ[Aib]AFIEYLIEGGPSSGAK([AEEA-AEEA-γGlu-C20 diacid])PPS-NH2), the EC50 [1] was 1.03 nM, the Ki (human Gcg receptor) was 11.1 nM and the Ki (human GIP receptor) was 0.0463 nM. For the same compound, the EC50 [2] was 0.106 nM and the Ki (human GLP-1R) was 5.65 nM.

For `CC[C@H](C)[C@H](NC(=O)[C@H](CCCCN)NC(=O)[C@H](CC(=O)O)NC(=O)[C@H](CC(C)C)NC(=O)[C@H](CC(C)C)NC(=O)[C@@H](NC(=O)[C@H](CO)NC(=O)[C@H](Cc1ccc(O)cc1)NC(=O)[C@H](CC(=O)O)NC(=O)[C@H](CO)NC(=O)[C@@H](NC(=O)[C@H](Cc1ccccc1)NC(=O)[C@@H](NC(=O)CNC(=O)[C@H](CCC(=O)O)NC(=O)C(C)(C)NC(=O)[C@@H](N)Cc1ccc(O)cc1)[C@@H](C)O)[C@@H](C)O)[C@@H](C)CC)C(=O)N[C@@H](C)C(=O)N[C@@H](CCC(N)=O)C(=O)NC(C)(C)C(=O)N[C@@H](C)C(=O)N[C@@H](Cc1ccccc1)C(=O)N[C@H](C(=O)N[C@@H](CCC(=O)O)C(=O)N[C@@H](Cc1ccc(O)cc1)C(=O)N[C@@H](CC(C)C)C(=O)N[C@H](C(=O)N[C@@H](CCC(=O)O)C(=O)NCC(=O)NCC(=O)N1CCC[C@H]1C(=O)N[C@@H](CO)C(=O)N[C@@H](CO)C(=O)NCC(=O)N[C@@H](C)C(=O)N1CCC[C@H]1C(=O)N[C@@H](CCCCNC(=O)COCCOCCNC(=O)COCCOCCNC(=O)CC[C@H](NC(=O)CCCCCCCCCCCCCCCCCCC(=O)O)C(=O)O)C(=O)N1CCC[C@H]1C(=O)N[C@@H](CO)C(N)=O)[C@@H](C)CC)[C@@H](C)CC` [Example 46] (H-Y[Aib]EGTFTSDYSILLDKIAQ[Aib]AFIEYLIEGGPSSGAPK([AEEA-AEEA-γGlu-C20 diacid])PS-NH2), the EC50 [1] was 0.687 nM, the Ki (human Gcg receptor) was 133 nM and the Ki (human GIP receptor) was 0.0852 nM. It also gave an EC50 [2] of 0.172 nM and a Ki (human GLP-1R) of 13.4 nM.

`CC[C@H](C)[C@H](NC(=O)[C@H](CCCCN)NC(=O)[C@H](CC(=O)O)NC(=O)[C@H](CC(C)C)NC(=O)[C@H](CC(C)C)NC(=O)[C@@H](NC(=O)[C@H](CO)NC(=O)[C@H](Cc1ccc(O)cc1)NC(=O)[C@H](CC(=O)O)NC(=O)[C@H](CO)NC(=O)[C@@H](NC(=O)[C@H](Cc1ccccc1)NC(=O)[C@@H](NC(=O)CNC(=O)[C@H](CCC(=O)O)NC(=O)C(C)(C)NC(=O)[C@@H](N)Cc1ccc(O)cc1)[C@@H](C)O)[C@@H](C)O)[C@@H](C)CC)C(=O)N[C@@H](C)C(=O)N[C@@H](CCC(N)=O)C(=O)NC(C)(C)C(=O)N[C@@H](C)C(=O)N[C@@H](Cc1ccccc1)C(=O)N[C@H](C(=O)N[C@@H](CCC(=O)O)C(=O)N[C@@H](Cc1ccc(O)cc1)C(=O)N[C@@H](CC(C)C)C(=O)N[C@H](C(=O)N[C@@H](CCC(=O)O)C(=O)NCC(=O)NCC(=O)N1CCC[C@H]1C(=O)N[C@@H](CO)C(=O)N[C@@H](CO)C(=O)NCC(=O)N[C@@H](C)C(=O)N1CCC[C@H]1C(=O)N1CCC[C@H]1C(=O)N1CCC[C@H]1C(=O)N[C@@H](CCCCNC(=O)COCCOCCNC(=O)COCCOCCNC(=O)CC[C@H](NC(=O)CCCCCCCCCCCCCCCCCCC(=O)O)C(=O)O)C(N)=O)[C@@H](C)CC)[C@@H](C)CC` [Example 48] (H-Y[Aib]EGTFTSDYSILLDKIAQ[Aib]AFIEYLIEGGPSSGAPPPK([AEEA-AEEA-γGlu-C20 diacid])-NH2; N-terminus assumed) was tested, and the EC50 [1] was 0.691 nM, the Ki (human Gcg receptor) was 111 nM and the Ki (human GIP receptor) was 0.074 nM. It also gave an EC50 [2] of 0.168 nM and a Ki (human GLP-1R) of 15.7 nM.

Compound `CC[C@H](C)[C@H](NC(=O)[C@H](CCCCN)NC(=O)[C@H](CC(=O)O)NC(=O)[C@H](CC(C)C)NC(=O)[C@H](CC(C)C)NC(=O)[C@@H](NC(=O)[C@H](CO)NC(=O)[C@H](Cc1ccc(O)cc1)NC(=O)[C@H](CC(=O)O)NC(=O)[C@H](CO)NC(=O)[C@@H](NC(=O)[C@H](Cc1ccccc1)NC(=O)[C@@H](NC(=O)CNC(=O)[C@H](CCC(=O)O)NC(=O)C(C)(C)NC(=O)[C@@H](N)Cc1ccc(O)cc1)[C@@H](C)O)[C@@H](C)O)[C@@H](C)CC)C(=O)N[C@@H](C)C(=O)N[C@@H](CCC(N)=O)C(=O)NC(C)(C)C(=O)N[C@@H](C)C(=O)N[C@@H](Cc1ccccc1)C(=O)N[C@H](C(=O)N[C@@H](CCC(=O)O)C(=O)N[C@@H](Cc1ccc(O)cc1)C(=O)N[C@@H](CC(C)C)C(=O)N[C@H](C(=O)N[C@@H](CCC(=O)O)C(=O)NCC(=O)NCC(=O)N1CCC[C@H]1C(=O)N[C@@H](CO)C(=O)N[C@@H](CO)C(=O)NCC(=O)N[C@@H](C)C(=O)N1CCC[C@H]1C(=O)N1CCC[C@H]1C(=O)N1CCC[C@H]1C(=O)N[C@@H](CO)C(=O)N[C@@H](CCCCNC(=O)COCCOCCNC(=O)COCCOCCNC(=O)CC[C@H](NC(=O)CCCCCCCCCCCCCCCCCCC(=O)O)C(=O)O)C(N)=O)[C@@H](C)CC)[C@@H](C)CC` [Example 49] (H-Y[Aib]EGTFTSDYSILLDKIAQ[Aib]AFIEYLIEGGPSSGAPPPSK([AEEA-AEEA-γGlu-C20 diacid])-NH2; N-terminus assumed) has an EC50 [1] of 0.597 nM, a Ki (human Gcg receptor) of 236 nM and a Ki (human GIP receptor) of 0.087 nM. It also gave an EC50 [2] of 0.0868 nM and a Ki (human GLP-1R) of 12.3 nM.

`CC[C@H](C)[C@H](NC(=O)[C@H](CC(C)C)NC(=O)[C@H](Cc1ccc(O)cc1)NC(=O)[C@H](CCC(=O)O)NC(=O)[C@@H](NC(=O)[C@H](Cc1ccccc1)NC(=O)[C@H](C)NC(=O)C(C)(C)NC(=O)[C@H](CCC(N)=O)NC(=O)[C@H](C)NC(=O)[C@H](CCCCNC(=O)COCCOCCNC(=O)COCCOCCNC(=O)CC[C@H](NC(=O)CCCCCCCCCCCCCCCCCCC(=O)O)C(=O)O)NC(=O)[C@H](CCCCN)NC(=O)[C@H](CC(=O)O)NC(=O)[C@H](CC(C)C)NC(=O)[C@H](CC(C)C)NC(=O)[C@@H](NC(=O)[C@H](CO)NC(=O)[C@H](Cc1ccc(O)cc1)NC(=O)[C@H](CC(=O)O)NC(=O)[C@H](CO)NC(=O)[C@@H](NC(=O)[C@H](Cc1ccccc1)NC(=O)[C@@H](NC(=O)CNC(=O)[C@H](CCC(=O)O)NC(=O)C(C)(C)NC(=O)[C@@H](N)Cc1ccc(O)cc1)[C@@H](C)O)[C@@H](C)O)[C@@H](C)CC)[C@@H](C)CC)C(=O)N[C@@H](CCC(=O)O)C(=O)NCC(=O)NCC(=O)N1CCC[C@H]1C(=O)N[C@@H](CO)C(=O)N[C@@H](CO)C(=O)NCC(N)=O` [Example 50] (H-Y[Aib]EGTFTSDYSILLDKK([AEEA-AEEA-γGlu-C20 diacid])AQ[Aib]AFIEYLIEGGPSSG-NH2) was tested, and the EC50 [1] was 0.0961 nM, the Ki (human Gcg receptor) was 220 nM and the Ki (human GIP receptor) was 0.0568 nM. It also gave an EC50 [2] of 0.0794 nM and a Ki (human GLP-1R) of 4.71 nM.
